# Measured values published in patent US20240003908A1, “POLYOL BIOMARKERS FOR CONGENITAL DISORDERS OF GLYCOSYLATION” (Mayo Foundation for Medical Education and Research, priority 2020, published 2024).
# System: PMM-deficient fibroblasts
# Assay: Glycoproteomics of PMM-deficient fibroblasts treated with epalrestat or vehicle
# Format: cell-based, human
# Description: Proteomics and glycoproteomics: Cell were scraped in PBS, pH 7.4 and sonicated with a tip sonicator at 40% amplitude for 3 cycles of 10 seconds each. Equal amount of proteins were digested with trypsin as described elsewhere (Mun et al., Anal Chem 92:14466-14475, 2020). The digested peptides were labeled with tandem mass tag (TMT) reagents as per the manufacturer's instructions (ThermoFisher). Labelled samples were pooled, and either size-exclusion chromatography or basic pH reversed-phase fractionation was performed. An aliquot of dried peptides was resuspended in 100 μL of 0.1% formic acid and injected into Superdex peptide 10/300 column (GE Healthcare). Twenty-one (21) early fractions were collected starting at 10 minutes after injection (total run time of 130 minutes) and analyzed by LC-MS/MS as described elsewhere (Mun et al., supra). Another aliquot of total peptides was cleaned up by C18 TopTips (Glygen) and fractionated by bRPLC on a reversed phase C18 column (4.6×100 mm column). Twelve (12) fractions were dried and re-suspended in 0.1% formic acid for LC-MS/MS analysis.
# A modification of the LC-MS/MS parameters described by Mun et al. (supra) were used. Specifically, 21 early fractions from SEC and 12 fractions of bRPLC were analyzed by Orbitrap Exploris480 mass spectrometer (Thermo Fisher Scientific) coupled to an EASY-Spray column (Thermo Fisher Scientific). Every run was 130 minutes with a flow rate of 300 nL/minute. The gradient used for separation was: equilibration at 3% solvent B from 0 to 4 minutes, 3% to 10% sol B from 4 to 10 minutes, 10% to 35% sol B from 10.1 to 125 minutes, and 35% to 80% sol B from […]. All experiments were done in DDA mode with the top 15 ions isolated at a window of 0.7 m/z and a default charge state of +2. Charge states ranging from +2 to +7 were considered for MS/MS events. Stepped collision energy was applied to precursors at normalized collision energies of 15, 25, and 40. The MS precursor mass range was set to 375 to 2000 m/z and 100 to 2000 for MS/MS. The automatic gain control for MS and MS/MS were 1×10^6 and 1×10^5 and the injection times to reach AGC were 50 ms and 250 ms, respectively. 60 second dynamic exclusion was applied. Data acquisition was performed with the option of Lock mass (441.1200025 m/z) for all data.
# Database searching and analysis: The publicly available software pGlyco Version 2.2.0 was used (Zeng et al., Sci Rep 6:25102, 2016; and Liu et al., Nat Commun 8:438, 2017). A glycan database containing 8,092 entries and Uniprot Human Reviewed protein sequences (20,432 entries) were used as protein sequence fasta files. Cleavage specificity was set to fully tryptic with 2 missed cleavages, and precursor and fragment tolerance were set to 5 and 20 ppm. […] Reporter ion quantification was performed in Proteome Discoverer 2.5 using “reporter ion quantifier” node and Ids were matched with quantitation on a scan-to-scan basis (MS/MS). […]
# To compare responders (patients who had more than a 20% increase in enzyme activity after epalrestat treatment) to non-responders (patients who had less than a 20% increase in enzyme activity after epalrestat treatment) and gauge the increase in glycosylation upon epalrestat treatment, linear fold changes (treated/untreated) were calculated for each of these 412 glycopeptides. The fold changes of non-responders were subtracted from the fold changes of the responders, and the fold change difference (delta fold change) was calculated. […]
smiles,measurement,setting,value
CC(/C=C1\SC(=S)N(CC(=O)O)C1=O)=C\c1ccccc1 [epalrestat],share of reduced glycopeptides improved post-treatment,"665 of 1,448",46%
same,improved glycopeptides that had reduced glycosylation in PMM-deficient fibroblasts compared to controls,among the 412 improved,97 glycopeptides
same,"number of glycopeptides improved post-treatment, becoming similar to controls","of 1,448 reduced in untreated PMM-deficient fibroblasts",665 glycopeptides
same,number of glycopeptides with differential (enhanced) abundance after epalrestat,paired epalrestat vs vehicle,412 glycopeptides
same,ICAM-1 Asn267 glycopeptide (Hex7HexNAc6NeuAc2Fuc5) increase in abundance,paired epalrestat vs. vehicle analysis,10%
